Source: ChEMBL document CHEMBL3217733, “Synthesis of precursors and macrocycle analogs of aerucyclamides as anti-trypanosomal agents” (Medchemcomm, 2012)

Columns and labels:
[1] = test system: Trypanosoma brucei brucei; assay: Antitrypanosomal activity against Trypanosoma brucei brucei strain 427 assessed as growth inhibition at 25 uM; assay type: functional; details: read-out: GI
[2] = test system: Trypanosoma brucei brucei; assay: Antitrypanosomal activity against infective form of Trypanosoma brucei brucei strain 427 assessed as growth inhibition; assay type: functional, organism-based
J774 = assay: Cytotoxicity against […] mouse J774 cells after 24 hrs by WST1 assay; assay type: cell-based; details: J774, 24 h
[3] = Selectivity index, ratio of EC50 for mouse J774 cells to EC50 for infective form of Trypanosoma brucei brucei strain 427; assay type: toxicity, cell-based; details: read-out: Ratio EC50

Row | SMILES | inhibition of growth at 25 µM [1] [%] | EC50 [2] [µM] | EC50 (J774) [µM] | selectivity ratio [3]
1 | CCOC(=O)c1csc(CNC(=O)OC(C)(C)C)n1 | 26.4 |  |  | 
2 | CC[C@H](C)[C@H](NC(=O)c1csc(CNC(=O)OC(C)(C)C)n1)c1nc(C(=O)OC)co1 | 8.1 |  |  | 
3 | CC[C@H](C)[C@H](NC(=O)c1csc(CNC(=O)OC(C)(C)C)n1)c1nc(C(=O)N[C@H](c2nc(C(=O)OC)co2)[C@@H](C)CC)co1 | 18.3 |  |  | 
4 | CC[C@H](C)[C@@H]1NC(=O)c2coc(n2)[C@H]([C@@H](C)CC)NC(=O)c2csc(n2)CNC(=O)c2coc1n2 | 16.2 |  |  | 
5 | CC[C@H](C)[C@H](NC(=O)c1csc([C@@H](NC(=O)OC(C)(C)C)[C@@H](C)CC)n1)c1nc(C(=O)OC)co1 | 41.1 |  |  | 
6 | CC[C@H](C)[C@@H]1NC(=O)c2coc(n2)[C@H]([C@@H](C)CC)NC(=O)c2coc(n2)[C@H]([C@@H](C)CC)NC(=O)c2coc1n2 | 13.5 |  |  | 
7 | CC[C@H](C)[C@H](NC(=O)c1csc([C@@H](NC(=O)c2csc(CNC(=O)OC(C)(C)C)n2)[C@@H](C)CC)n1)c1nc(C(=O)OC)co1 | 20.9 |  |  | 
8 | CC[C@H](C)[C@@H]1NC(=O)c2csc(n2)[C@H]([C@@H](C)CC)NC(=O)c2csc(n2)CNC(=O)c2coc1n2 | 100 | 11.4 | 48.8 | 4.3
9 | CC[C@H](C)[C@H](NC(=O)c1csc(CNC(=O)OC(C)(C)C)n1)c1nc(C(=O)OC)cs1 | 11.5 |  |  | 
10 | CC[C@H](C)[C@H](NC(=O)c1csc([C@@H](NC(=O)c2csc(CNC(=O)OC(C)(C)C)n2)[C@@H](C)CC)n1)c1nc(C(=O)OC)c(C)o1 | 79.1 | 6 | 915 | 150
11 | CC[C@H](C)[C@@H]1NC(=O)c2csc(n2)[C@H]([C@@H](C)CC)NC(=O)c2csc(n2)CNC(=O)c2nc1oc2C [MACROCYCLE] | 41.7 |  |  | 
12 | CN(C)c1ccc2nc3ccc(=[N+](C)C)cc-3sc2c1 [METHYLENE BLUE CATION] |  | 0.4 |  | 
